Results as given in patent US7183267B2, “β-lactamase inhibitors and methods of use thereof” (priority 2003, dated 2007).

What was measured:
[1] = tested on: methicillin resistant S. aureus ATCC 33591 (MRSA-ATCC); experiment: Matrix system: oxacillin plus β-lactamase inhibitor, MRSA-ATCC; type: cell-based; parameters: key to extent of growth (numerical code): 0 = no growth, 1 = faint, 2 = fair, 3 = equal to solvent control
Procedure: (§1) To each well of a 96 well microtiter plate was added 47.5 μl of MHB. A volume of 2.5 μl of each dilution of oxacillin was then transferred to appropriate wells containing the medium. All wells, except the sterility control wells, were then inoculated with 50 μl of a diluted cell suspension to give a final volume of 100 μl and a final cell density of 5×10^4 CFU/well. The volume in the sterility control wells was adjusted to 100 μl with MHB. A sterile pipette tip was used to mix the contents of each well (one tip was used going from the low to the high concentration in the same column). The microtiter plates were covered with the lids and were placed in large Stratagene Big Blue plates (Cat. # 400041). Four large kimwipes moistened with tap water were placed near the edges of the Stratagene plates to prevent evaporation of the medium. The microtiter plates were incubated for at least 24 hours at 35° C. The plates were then evaluated for growth in each well. Controls included: medium sterility and negative control (medium and bacteria only).
(§2) A numerical code was used to evaluate the extent of growth as indicated below. • 0: absence of growth • 1: barely visible (faint) growth • 2: fair growth but less than the negative solvent control • 3: growth is equivalent to the negative solvent control.
(§3) The lowest dose at which no visible growth is observed was determined to be the MIC value.
(§4) The effect of the four compounds of the present invention on oxacillin resistance of the MRSA strains was determined using a matrix system. The β-lactamase inhibitors were tested at 5 doses against up to eleven concentrations of oxacillin. […] A 96-well microtiter plate was used for the matrix system. The procedure was identical to that described above for the MIC determination, with the exception that both oxacillin and one each of the β-lactamase inhibitors was added, 2.5 μl each, to the wells prior to addition of the test organisms.
Matrix Study:Oxacillin and Compound FL201 with MRSA-ATCC
Matrix Study: Oxacillin and Compound Fl202 with MRSA-ATCC

[2] = tested on: methicillin resistant S. aureus from Stanford University Hospital (MRSA-SU); experiment: Matrix system: oxacillin plus β-lactamase inhibitor, MRSA-SU; type: cell-based; parameters: key to growth score: 0 = no growth, 3 = growth equal to negative solvent control
Procedure: as §1, §2, §3, §4
Matrix Study:Oxacillin and Compound FL201 with MRSA-SU
Matrix Study: Oxacillin and Compound FL202 with MRSA-SU

Cc1onc(-c2ccccc2)c1C(=O)N[C@@H]1C(=O)N2[C@@H]1SC(C)(C)[C@@H]2C(=O)O [Oxacillin, reference compound]
0: extent of growth (numerical code) ([1]; oxacillin 64 μg/ml + compound 0 μg/ml) | growth score ([2]; Table 17, oxacillin 256 μg/ml, F1201 0) | growth score ([2]; Table 18, oxacillin 256 μg/ml, F1202 0)
64 µg/mL: MIC ([1]; Staphylococcus aureus, 24 h, matrix study, compound 0 μg/ml)
256 µg/mL: MIC ([2]; Staphylococcus aureus, 24 h, Table 17, oxacillin alone, F1201 0) | MIC (oxacillin) ([2]; Table 18, oxacillin alone, F1202 0)
3: extent of growth (numerical code) ([1]; oxacillin 0.064 μg/ml + compound 0 μg/ml) | extent of growth (numerical code) ([1]; oxacillin 0.125 μg/ml + compound 0 μg/ml) | extent of growth (numerical code) ([1]; oxacillin 0.25 μg/ml + compound 0 μg/ml) | extent of growth (numerical code) ([1]; oxacillin 0.5 μg/ml + compound 0 μg/ml) | extent of growth (numerical code) ([1]; oxacillin 1 μg/ml + compound 0 μg/ml) | extent of growth (numerical code) ([1]; oxacillin 2 μg/ml + compound 0 μg/ml) | extent of growth (numerical code) ([1]; oxacillin 4 μg/ml + compound 0 μg/ml) | extent of growth (numerical code) ([1]; oxacillin 8 μg/ml + compound 0 μg/ml) | growth score ([2]; Table 17, oxacillin 0.064 μg/ml, F1201 0) | growth score ([2]; Table 17, oxacillin 0.125 μg/ml, F1201 0) | growth score ([2]; Table 17, oxacillin 0.25 μg/ml, F1201 0) | growth score ([2]; Table 17, oxacillin 0.5 μg/ml, F1201 0) | growth score ([2]; Table 17, oxacillin 1 μg/ml, F1201 0) | growth score ([2]; Table 17, oxacillin 2 μg/ml, F1201 0) | growth score ([2]; Table 17, oxacillin 4 μg/ml, F1201 0) | growth score ([2]; Table 17, oxacillin 16 μg/ml, F1201 0) | growth score ([2]; Table 18, oxacillin 0.064 μg/ml, F1202 0) | growth score ([2]; Table 18, oxacillin 0.125 μg/ml, F1202 0) | growth score ([2]; Table 18, oxacillin 0.25 μg/ml, F1202 0) | growth score ([2]; Table 18, oxacillin 0.5 μg/ml, F1202 0) | growth score ([2]; Table 18, oxacillin 1 μg/ml, F1202 0) | growth score ([2]; Table 18, oxacillin 2 μg/ml, F1202 0) | growth score ([2]; Table 18, oxacillin 4 μg/ml, F1202 0) | growth score ([2]; Table 18, oxacillin 16 μg/ml, F1202 0)
2: extent of growth (numerical code) ([1]; oxacillin 16 μg/ml + compound 0 μg/ml) | extent of growth (numerical code) ([1]; oxacillin 32 μg/ml + compound 0 μg/ml) | growth score ([2]; Table 17, oxacillin 64 μg/ml, F1201 0) | growth score ([2]; Table 18, oxacillin 64 μg/ml, F1202 0) | growth score ([2]; Table 18, oxacillin 128 μg/ml, F1202 0)
1: growth score ([2]; Table 17, oxacillin 128 μg/ml, F1201 0)
